Test results as given in patent US10758534B2 (Vertex Pharmaceuticals Incorporated, priority 2014, dated 2020).

Target: T1, F508del (Homo sapiens, UniProt P13569, DEL508-508)
T1 construct: expressed in transfected cells
Experiment: Protocol 1: membrane potential optical assay (FLIPR III, voltage sensing dye), identification of potentiator compounds
Format: cell-based
Conditions: Table 3, compounds of Table 1
Summary of the method: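 Read-out: change in voltage-sensing dye fluorescence (FLIPR III) as a measure of F508del conductance. Temperature-corrected (27° C, 24 hrs) NIH 3T3 cells expressing F508del are pretreated with potentiators, dye-loaded, then stimulated with forskolin under a chloride ion gradient using chloride-free gluconate bath.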

T1 sequence (P13569 with tags, fused parts or gaps DEL508-508): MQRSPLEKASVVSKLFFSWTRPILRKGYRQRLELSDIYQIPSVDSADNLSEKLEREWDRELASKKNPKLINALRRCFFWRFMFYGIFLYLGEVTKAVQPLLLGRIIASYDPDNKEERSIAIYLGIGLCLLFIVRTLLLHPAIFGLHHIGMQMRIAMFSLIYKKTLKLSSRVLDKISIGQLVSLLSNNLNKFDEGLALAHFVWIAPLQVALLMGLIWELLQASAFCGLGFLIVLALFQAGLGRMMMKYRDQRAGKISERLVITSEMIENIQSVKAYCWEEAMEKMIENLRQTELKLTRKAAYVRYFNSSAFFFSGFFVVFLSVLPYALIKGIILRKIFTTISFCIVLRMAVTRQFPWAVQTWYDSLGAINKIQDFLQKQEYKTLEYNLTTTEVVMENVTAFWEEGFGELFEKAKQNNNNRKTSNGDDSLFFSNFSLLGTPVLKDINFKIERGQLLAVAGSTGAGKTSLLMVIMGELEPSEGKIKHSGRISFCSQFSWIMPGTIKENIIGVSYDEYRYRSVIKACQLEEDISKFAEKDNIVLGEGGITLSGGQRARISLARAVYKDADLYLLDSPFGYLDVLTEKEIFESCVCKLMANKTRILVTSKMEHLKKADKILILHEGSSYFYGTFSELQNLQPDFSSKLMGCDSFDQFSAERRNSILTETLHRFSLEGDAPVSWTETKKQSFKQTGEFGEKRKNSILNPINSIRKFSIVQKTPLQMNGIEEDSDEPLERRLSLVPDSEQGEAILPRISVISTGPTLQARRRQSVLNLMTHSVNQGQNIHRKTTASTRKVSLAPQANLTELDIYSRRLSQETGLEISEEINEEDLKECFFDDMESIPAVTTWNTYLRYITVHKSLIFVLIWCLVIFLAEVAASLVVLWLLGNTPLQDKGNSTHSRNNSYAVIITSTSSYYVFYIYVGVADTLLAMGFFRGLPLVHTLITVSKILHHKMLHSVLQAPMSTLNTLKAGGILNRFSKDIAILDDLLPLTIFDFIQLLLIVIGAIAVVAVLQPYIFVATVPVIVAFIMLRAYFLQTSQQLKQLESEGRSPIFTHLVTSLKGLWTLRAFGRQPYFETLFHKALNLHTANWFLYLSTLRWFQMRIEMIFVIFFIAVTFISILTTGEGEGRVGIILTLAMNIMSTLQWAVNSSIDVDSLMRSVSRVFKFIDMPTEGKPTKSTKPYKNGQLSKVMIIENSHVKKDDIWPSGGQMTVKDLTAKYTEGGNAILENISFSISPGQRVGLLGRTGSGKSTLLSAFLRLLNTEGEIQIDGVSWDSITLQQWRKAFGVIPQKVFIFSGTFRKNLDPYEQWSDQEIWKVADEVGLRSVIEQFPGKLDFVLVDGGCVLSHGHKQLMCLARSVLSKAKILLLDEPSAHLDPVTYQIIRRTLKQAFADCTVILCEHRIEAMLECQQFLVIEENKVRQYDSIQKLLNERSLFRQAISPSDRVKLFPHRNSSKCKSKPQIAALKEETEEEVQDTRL

EC30 | SMILES
+++ (“+++” means <3 uM) | CCCc1ccc2c(c1)cc(C(=O)NS(=O)(=O)c1cccc(N)n1)n2Cc1c(C)cc(C)cc1C [Compound 1158, N-[(6-amino-2-pyridyl)sulfonyl]-5-propyl-1-[(2,4,6-trimethylphenyl)methyl]indole-2-carboxamide]
+++ (“+++” means <3 uM) | Cc1cc(OCC(C)(C)C)ncc1-c1ccc(C(=O)NS(=O)(=O)c2cccc(N)n2)c(N2CC(C)CC2(C)C)n1 (centres unmarked) [Compound 1160, N-[(6-amino-2-pyridyl)sulfonyl]-6-[6-(2,2-dimethylpropoxy)-4-methyl-3-pyridyl]-2-(2,2,4-trimethylpyrrolidin-1-yl)pyridine-3-carboxamide]
+++ (“+++” means <3 uM) | COc1cccc2c1CN(Cc1c(C)cc(C)cc1C)C2(C)C(=O)NS(=O)(=O)c1cccc(N)n1 (centres unmarked) [Compound 1161, N-[(6-amino-2-pyridyl)sulfonyl]-4-methoxy-1-methyl-2-[(2,4,6-trimethylphenyl)methyl]isoindoline-1-carboxamide]
+++ (“+++” means <3 uM) | Cc1cc(C)c(Oc2nc(-c3ccc(OC(C)C)nc3)ccc2C(=O)NS(=O)(=O)c2cccc(N)n2)c(C)c1 [Compound 1163, N-[(6-amino-2-pyridyl)sulfonyl]-6-(6-isopropoxy-3-pyridyl)-2-(2,4,6-trimethylphenoxy)pyridine-3-carboxamide]
++ (“++” means between 3 uM and 10 uM) | COC1CCN(c2nc(C(C)(C)C)ccc2C(=O)NS(=O)(=O)c2cccc(N)n2)CC1 [Compound 1164, N-[(6-amino-2-pyridyl)sulfonyl]-6-tert-butyl-2-(4-methoxy-1-piperidyl)pyridine-3-carboxamide]
+++ (“+++” means <3 uM) | Cc1cc(C)c(Cn2nc(C(C)(C)C)cc2C(=O)NS(=O)(=O)c2ccccc2N)c(C)c1 [Compound 1167, N-(2-aminophenyl)sulfonyl-5-tert-butyl-2-[(2,4,6-trimethylphenyl)methyl]pyrazole-3-carboxamide]
++ (“++” means between 3 uM and 10 uM) | CC#Cc1ccc(C(=O)NS(=O)(=O)c2cccc(N)n2)c(Oc2c(C)cc(C)cc2C)n1 [Compound 1172, N-[(6-amino-2-pyridyl)sulfonyl]-6-prop-1-ynyl-2-(2,4,6-trimethylphenoxy)pyridine-3-carboxamide]
+++ (“+++” means <3 uM) | COc1ccccc1-c1ccc(C(=O)NS(=O)(=O)c2cccc(N)n2)c(Oc2c(C)cc(C)cc2C)n1 [Compound 1173, N-[(6-amino-2-pyridyl)sulfonyl]-6-(2-methoxyphenyl)-2-(2,4,6-trimethylphenoxy)pyridine-3-carboxamide]
+++ (“+++” means <3 uM) | Cc1ccc(-c2nc(C(C)(C)C)ccc2C(=O)NS(=O)(=O)c2ccccc2O)cc1 [Compound 1175, 6-tert-butyl-N-(2-hydroxyphenyl)sulfonyl-2-(p-tolyl)pyridine-3-carboxamide]
++ (“++” means between 3 uM and 10 uM) | Cc1cc(C)c(Oc2nc(-c3cnn(CC(C)C)c3)ccc2C(=O)NS(=O)(=O)c2cccc(N)n2)c(C)c1 [Compound 1177, N-[(6-amino-2-pyridyl)sulfonyl]-6-(1-isobutylpyrazol-4-yl)-2-(2,4,6-trimethylphenoxy)pyridine-3-carboxamide]
+++ (“+++” means <3 uM) | COc1ccc(F)c(-c2ccc(C(=O)NS(=O)(=O)c3cccc(N)n3)c(Oc3c(C)cc(C)cc3C)n2)c1 [Compound 1178, N-[(6-amino-2-pyridyl)sulfonyl]-6-(2-fluoro-5-methoxy-phenyl)-2-(2,4,6-trimethylphenoxy)pyridine-3-carboxamide]
++ (“++” means between 3 uM and 10 uM) | CCOc1ccc(-c2ccc(C(=O)NS(=O)(=O)c3ccc[nH]c3=O)c(Oc3c(C)cc(C)cc3C)n2)cc1 [Compound 1179, 6-(4-ethoxyphenyl)-N-[(2-oxo-1H-pyridin-3-yl)sulfonyl]-2-(2,4,6-trimethylphenoxy)pyridine-3-carboxamide]
+++ (“+++” means <3 uM) | CC1CN(c2nc(-c3ccc(OCC(C)(C)C)nc3)ccc2C(=O)NS(=O)(=O)c2cccc(N)n2)C(C)(C)C1 (centres unmarked) [Compound 1181, N-[(6-amino-2-pyridyl)sulfonyl]-6-[6-(2,2-dimethylpropoxy)-3-pyridyl]-2-(2,2,4-trimethylpyrrolidin-1-yl)pyridine-3-carboxamide]
++ (“++” means between 3 uM and 10 uM) | CC(C)Oc1ccc(-c2ccc(C(=O)NS(=O)(=O)c3cccc(N)n3)c(N3CCCCC3C)n2)cn1 (centres unmarked) [Compound 1182, N-[(6-amino-2-pyridyl)sulfonyl]-6-(6-isopropoxy-3-pyridyl)-2-(2-methyl-1-piperidyl)pyridine-3-carboxamide]
+ (“+” means greater than 10 uM) | Cc1cc(C)c(Oc2nc(-c3ccc(CO)cc3)ccc2C(=O)NS(=O)(=O)c2cccc(N)n2)c(C)c1 [Compound 1183, N-[(6-amino-2-pyridyl)sulfonyl]-6-[4-(hydroxymethyl)phenyl]-2-(2,4,6-trimethylphenoxy)pyridine-3-carboxamide]
+++ (“+++” means <3 uM) | CCOc1ccc(-c2ccc(C(=O)NS(=O)(=O)c3cccc(N)n3)c(Oc3c(C)cc(C)cc3C)n2)cn1 [Compound 1185, N-[(6-amino-2-pyridyl)sulfonyl]-6-(6-ethoxy-3-pyridyl)-2-(2,4,6-trimethylphenoxy)pyridine-3-carboxamide]

Continued, compound first:

SMILES | EC30
CC(C)COc1cc(F)cc(-c2ccc(C(=O)NS(=O)(=O)c3cccc(N)n3)c(N(CC3CC3)C(C)C)n2)c1 [Compound 1157, N-[(6-amino-2-pyridyl)sulfonyl]-2-[cyclopropylmethyl(isopropyl)amino]-6-(3-fluoro-5-isobutoxy-phenyl)pyridine-3-carboxamide] | +++ (“+++” means <3 uM)
CC(C)COc1cc(F)cc(-c2ccc(C(=O)NS(=O)(=O)c3cccnc3N)c(N3[C@H](C)CC[C@@H]3C)n2)c1 [Compound 1159, N-[(2-amino-3-pyridyl)sulfonyl]-2-[(2S,5R)-2,5-dimethylpyrrolidin-1-yl]-6-(3-fluoro-5-isobutoxy-phenyl)pyridine-3-carboxamide] | +++ (“+++” means <3 uM)
C=C1CCN(c2nc(-c3cc(F)cc(OCC(C)C)c3)ccc2C(=O)NS(=O)(=O)c2cccc(N)n2)CC1 [Compound 1162, N-[(6-amino-2-pyridyl)sulfonyl]-6-(3-fluoro-5-isobutoxy-phenyl)-2-(4-methylene-1-piperidyl)pyridine-3-carboxamide] | +++ (“+++” means <3 uM)
CC(C)COc1cc(F)cc(-c2ccc(C(=O)NS(=O)(=O)c3cccc(N)n3)c(OC(C)C3CC3)n2)c1 (centres unmarked) [Compound 1165, N-[(6-amino-2-pyridyl)sulfonyl]-2-(1-cyclopropylethoxy)-6-(3-fluoro-5-isobutoxy-phenyl)pyridine-3-carboxamide] | ++ (“++” means between 3 uM and 10 uM)
CC(C)COc1cc(F)cc(-c2ccc(C(=O)NS(=O)(=O)c3cccc(N)n3)c(N3[C@H](C)CCC3(C)C)n2)c1 [Compound 1166, N-[(6-amino-2-pyridyl)sulfonyl]-6-(3-fluoro-5-isobutoxy-phenyl)-2-[(5R)-2,2,5-trimethylpyrrolidin-1-yl]pyridine-3-carboxamide] | +++ (“+++” means <3 uM)
CC(C)COc1cc(F)cc(-c2ccc(C(=O)NS(=O)(=O)c3nc(N)cs3)c(N3CCC(C)(C)CC3)n2)c1 [Compound 1168, N-(4-aminothiazol-2-yl)sulfonyl-2-(4,4-dimethyl-1-piperidyl)-6-(3-fluoro-5-isobutoxy-phenyl)pyridine-3-carboxamide] | +++ (“+++” means <3 uM)
CC(C)COc1cc(F)cc(-c2ccc(C(=O)NS(=O)(=O)c3ccn[nH]3)c(N3CCCC(C)C3C)n2)c1 (centres unmarked) [Compound 1169, 2-(2,3-dimethyl-1-piperidyl)-6-(3-fluoro-5-isobutoxy-phenyl)-N-(1H-pyrazol-5-ylsulfonyl)pyridine-3-carboxamide] | ++ (“++” means between 3 uM and 10 uM)
CC(C)COc1cc(F)cc(-c2ccc(C(=O)NS(=O)(=O)c3cccc(N)n3)c(N3CCC[C@@H]3C(C)(C)C)n2)c1 [Compound 1170, N-[(6-amino-2-pyridyl)sulfonyl]-2-[(2R)-2-tert-butylpyrrolidin-1-yl]-6-(3-fluoro-5-isobutoxy-phenyl)pyridine-3-carboxamide] | +++ (“+++” means <3 uM)
COc1cccc(S(=O)(=O)NC(=O)c2ccc(-c3cc(F)cc(OCC(C)C)c3)nc2N2CC(C)CC2(C)C)c1 (centres unmarked) [Compound 1171, 6-(3-fluoro-5-isobutoxy-phenyl)-N-(3-methoxyphenyl)sulfonyl-2-(2,2,4-trimethylpyrrolidin-1-yl)pyridine-3-carboxamide] | +++ (“+++” means <3 uM)
CC(C)COc1cc(F)cc(-c2ccc(C(=O)NS(=O)(=O)c3ccn[nH]3)c(N3CCC(C)C(C)(C)C3)n2)c1 (centres unmarked) [Compound 1174, 6-(3-fluoro-5-isobutoxy-phenyl)-N-(1H-pyrazol-5-ylsulfonyl)-2-(3,3,4-trimethyl-1-piperidyl)pyridine-3-carboxamide] | +++ (“+++” means <3 uM)
CC(C)COc1cc(F)cc(-c2ccc(C(=O)NS(=O)(=O)c3ccn[nH]3)c(N3C[C@H](C)CC3(C)C)n2)c1 [Compound 1176, 6-(3-fluoro-5-isobutoxy-phenyl)-N-(1H-pyrazol-5-ylsulfonyl)-2-[(4R)-2,2,4-trimethylpyrrolidin-1-yl]pyridine-3-carboxamide] | +++ (“+++” means <3 uM)
CC(C)COc1cc(F)cc(-c2ccc(C(=O)NS(=O)(=O)c3cccc(N)n3)c(N3C[C@@H]4CC[C@H]3C4)n2)c1 [Compound 1180, N-[(6-amino-2-pyridyl)sulfonyl]-2-[(1R,4S)-3-azabicyclo[2.2.1]heptan-3-yl]-6-(3-fluoro-5-isobutoxy-phenyl)pyridine-3-carboxamide] | +++ (“+++” means <3 uM)
CC(C)COc1cc(F)cc(-c2ccc(C(=O)NS(=O)(=O)c3cccc(N)c3)c(N3CC(C)CC3(C)C)n2)c1 (centres unmarked) [Compound 1184, N-(3-aminophenyl)sulfonyl-6-(3-fluoro-5-isobutoxy-phenyl)-2-(2,2,4-trimethylpyrrolidin-1-yl)pyridine-3-carboxamide] | +++ (“+++” means <3 uM)
